“Also recorded” adds a separate entry of the source. Where a SMILES comes first, the peptide text is derived from it. Bridges are numbered along the chain shown (N, C = ends).
Tests used:
[1] = tested on: Madin-Darby canine kidney (MDCK) cell monolayers; conditions: Val6 mutation; cited from earlier work
From the text: Currently, the mechanism of binding as well as the EC1 binding site of ADT peptides have not been elucidated; thus, this study was aimed at using nuclear magnetic resonance (NMR) and molecular docking experiments to determine ADTC5 binding properties (Table 1) on EC1. […] Therefore, the Val6 residue was mutated to the Glu6 or Tyr6 re ...

[2] = tested on: BBB tight junctions; conditions: cited from earlier work
From the text: As BBBMs, the in vivo activities of ADT and HAV peptides to modulate the BBB were transient and reversible. […] Different cadherin peptides produced different durations of the BBB opening for different sizes of del ...

[3] = tested on: blood-brain barrier (BBB); conditions: cited from earlier work
From the text: In addition, Gd-DTPA delivery to the brain was enhanced when co-administered with ADTC5 in living mice upon detection with magnetic resonance imaging (MRI). […] Different cadherin peptides produced different durations of the BBB opening for different sizes of del ...

[4] = tested on: blood-brain barrier (BBB); conditions: in-situ rat brain perfusion; cited from earlier work
[5] = target: T1, EC1 domain of human E-cadherin (Homo sapiens, UniProt P12830); test: 1H-15N HSQC NMR titration of 15N-labeled EC1 (chemical shift perturbation, CSP); type: binding
T1 construct: Strep-tag I (WSHPQFEK) (C); factor Xa cleavage site (IEGR) linker (C); made in house; host or cells: E. coli BL21(DE3), plasmid pASK-IBA6
T1 sequence (P12830 155-292): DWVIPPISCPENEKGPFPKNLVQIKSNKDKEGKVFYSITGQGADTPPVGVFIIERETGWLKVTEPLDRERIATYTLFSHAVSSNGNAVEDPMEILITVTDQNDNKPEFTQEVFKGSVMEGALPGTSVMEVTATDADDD
From the text: Our previous method was used to express and purify the ^15N-labeled EC1 domain [22]. Briefly, the plasmid (pASK-IBA6, Genosys, Woodland, TX) contains DNA construct of 138 amino acid residues. The EC1 domain has 110 residues connected to 28 amino acids from the EC2 domain sequence at the C-terminus tail followed by a WSHPQFEK sequence of Streptag I that is linked by an IEGR sequence for a factor Xa cleavage. Then, the plasmid was transformed into competent E. coli BL21(DE3) cells (New England Biosciences, Ipswich, MA). The cells were incubated at 37°C overnight on a plate with lysogeny broth (LB) agar containing […] ampicillin. A single colony of E. coli cells was picked and incubated in 10 mL of LB media followed by the addition of 10 μL ampicillin at 100 mg/mL concentration. Then, the mixture was incubated in an orbital shaker at 250 rpm and 37°C. ^15N-labeled NH4Cl was added to 250 mL of M9 minimal media in 1 L Erlenmeyer flask to produce the ^15N-labeled EC1 domain. A 24 μL of anhydrotetracycline (2 mg/mL; Promega Inc., Madison, WI) was spiked into the cell culture when it reached OD550 of 0.5–0.6 to induce the EC1 protein expression. Then, the cell mixture was incubated at 30°C for 6–7 h followed by cell harvesting using centrifugation at 4,500 xg. The resulting cell pellets were stored at −80°C.
For isolation of purified ^15N-EC1, E. coli cell pellets were lysed using 20,000 psi French press (Thermo Electron Corporation) in 10 mL of binding buffer. This binding buffer consists of 150 mM NaCl, 1.0 mM EDTA, 0.02% NaN3, and 100 mM Tris-HCl at pH = 8.0. The mixture was centrifuged at 21,000 xg, 4°C, and 1 h to get rid of cellular debris. The EC1 domain was in the supernatant and the Amicon Ultra protein concentrator [10 kDa molecular weight (MW) cut-off, EMD Millipore, Billerica, MA] was used to concentrate the protein upon centrifugation at 4,500 rpm, 20 min, and 4°C. […] The purity of pooled EC1 fractions was evaluated by SDS-PAGE. Protein concentration was calculated using UV spectrometry at 280 nm (coefficient absorption = 19,480 M^–1 cm^–1). […]

## CC(=O)N[C@H]1CSSC[C@@H](C(N)=O)NC(=O)[C@H](C(C)C)NC(=O)[C@@H]2CCCN2C(=O)[C@@H]2CCCN2C(=O)[C@H]([C@@H](C)O)NC(=O)[C@H](CC(=O)O)NC1=O [ADTC5] (Ac-CDTPPVC-NH2; disulfide 1-7)
[1]
  modulatory activity in MDCK cell monolayers: mutation of this residue reduced inhibitory activity in preventing the resealing of the paracellular pathway
[2]
  anatomical structure of BBB tight junctions: did not change
[3]; 65 kDa Galbumin
  duration of paracellular porosity for Galbumin: less than 20 min
[3]; 150 kDa mAb
  delivery of mAb to brain: had to be administered together with 150 kDa mAb for delivering mAb to the brain
[3]; co-administered, living mice, MRI
  Gd-DTPA delivery to the brain: enhanced
[3]; i.v., co-administered, mice, mass spectrometry, NIRF, MRI
  brain deposition of peptides, Galbumin and mAb: significantly enhanced brain deposition of peptides, Gd-labeled albumin (Galbumin), and mAb
[3]; small molecule Gd-DTPA
  duration of in vivo paracellular opening for Gd-DTPA: less than 4 h
[4]
  delivery of various molecules to the brain: enhanced the delivery of various molecules to the brain
[5]; 1H-15N HSQC titration, pH 6.0
  EC1 residues with largest/significant NH chemical shift perturbation: One of the dramatic changes was seen for residue I4 with larger CSP compared to other residues; also recorded: In addition to the strong effect of the NH of I4 residue, significant shifts were also observed in the NHs of I38, I53, V98, D103, and F113 residues; also recorded: large CSP changes on D103, and F113 residues at the C-terminal tail; also recorded: large CSP changes were also observed at the I4, I7, and S8 residues at the N-terminus domain
[5]; comparison among ADTC5, ADTC7, ADTC9
  relative binding affinity to EC1: highest binding affinity to the EC1 domain of E-cadherin compared to ADTC7 and ADTC9; also recorded: binds better to the EC1 domain compared to ADTC7 and ADTC9
[5]; comparison of CSP profiles / conformational effect, 1H-15N HSQC
  CSP result in words: influences the conformation of the EC1 C-terminal tail; also recorded: All seven clusters have consistent high CSPs on active residues T97, V98, and D103; also recorded: binding of ADTC5 to EC1 may induce conformational change at the C-terminal tail; also recorded: binding of ADTC5 can cause conformational change at the N-terminal region or domain swapping region

— paper PMC11309765, “Mechanism of the blood-brain barrier modulation by cadherin peptides” (Exploration of drug science, 2024)
